Data taken from publication doi:10.1101/2024.05.30.596624v1 (biorxiv, 2024).
Converted amounts (≈) assume the structure as drawn.

How the values were obtained:
[1] = in vitro; conditions: human, Caco-2
[2] = target: AMPK α1β2γ1 (Homo sapiens, UniProt O43741+Q13131); assay: Caliper mobility shift kinase assay, FAM-SAMS peptide; assay type: biochemical
[3] = in vitro; conditions: human, plasma
[4] = tested on: HepG2; assay: cells; conditions: Homo sapiens, HepG2, read-out: Hu HepG2 EC50
[5] = in vitro; conditions: human, hepatocytes
[6] = physchem; conditions: aqueous phosphate buffer, pH 7.4, aqueous buffer
[7] = target: AMPK α1β1γ1 (Homo sapiens, UniProt Q13131+Q9Y478); assay: Caliper mobility shift kinase assay, FAM-SAMS peptide; assay type: biochemical
AMPK α1β1γ1, sequence (Q13131 whole entry): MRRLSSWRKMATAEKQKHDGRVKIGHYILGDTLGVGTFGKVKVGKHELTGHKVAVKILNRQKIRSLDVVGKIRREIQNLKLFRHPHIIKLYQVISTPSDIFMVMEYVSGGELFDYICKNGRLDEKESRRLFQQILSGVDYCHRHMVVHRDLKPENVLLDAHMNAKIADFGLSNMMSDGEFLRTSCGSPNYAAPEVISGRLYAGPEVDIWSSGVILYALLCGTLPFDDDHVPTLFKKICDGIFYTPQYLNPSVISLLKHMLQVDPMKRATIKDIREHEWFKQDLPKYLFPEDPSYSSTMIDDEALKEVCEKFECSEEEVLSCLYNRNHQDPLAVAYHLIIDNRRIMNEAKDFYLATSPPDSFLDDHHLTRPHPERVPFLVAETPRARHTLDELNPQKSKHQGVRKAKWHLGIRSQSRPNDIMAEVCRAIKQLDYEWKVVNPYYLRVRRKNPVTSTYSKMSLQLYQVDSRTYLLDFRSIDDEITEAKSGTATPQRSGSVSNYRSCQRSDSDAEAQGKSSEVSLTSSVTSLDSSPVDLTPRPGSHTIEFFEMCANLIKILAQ
AMPK α1β1γ1, sequence (Q9Y478 2-270): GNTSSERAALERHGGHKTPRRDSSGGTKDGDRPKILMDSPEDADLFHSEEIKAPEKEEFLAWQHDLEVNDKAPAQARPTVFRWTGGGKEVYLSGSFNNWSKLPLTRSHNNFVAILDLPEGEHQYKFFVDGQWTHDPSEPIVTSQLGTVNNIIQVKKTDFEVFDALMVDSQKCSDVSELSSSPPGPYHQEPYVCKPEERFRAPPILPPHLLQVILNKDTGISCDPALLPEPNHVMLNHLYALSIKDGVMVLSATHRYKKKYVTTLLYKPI
AMPK α1β1γ1, sequence (P54619 whole entry partner): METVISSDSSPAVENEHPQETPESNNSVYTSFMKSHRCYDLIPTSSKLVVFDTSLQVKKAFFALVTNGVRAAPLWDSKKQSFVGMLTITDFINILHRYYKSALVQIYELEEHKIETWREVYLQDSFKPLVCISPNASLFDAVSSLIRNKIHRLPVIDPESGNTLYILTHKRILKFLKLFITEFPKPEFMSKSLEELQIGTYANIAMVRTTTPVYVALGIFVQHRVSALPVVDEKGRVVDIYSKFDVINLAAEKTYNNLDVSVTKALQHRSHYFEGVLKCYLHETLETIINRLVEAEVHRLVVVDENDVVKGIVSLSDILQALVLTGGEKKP

[8] = physchem; conditions: 1-octanol/phosphate buffer, pH 7.4
[9] = in vitro; conditions: human, liver microsomes
[10] = in vitro; conditions: mouse, hepatocytes
[11] = in vitro; conditions: rat, hepatocytes

AMPK α1β2γ1, sequence (Q13131 whole entry): as the sequence (Q13131 whole entry) above
AMPK α1β2γ1, sequence (O43741 whole entry): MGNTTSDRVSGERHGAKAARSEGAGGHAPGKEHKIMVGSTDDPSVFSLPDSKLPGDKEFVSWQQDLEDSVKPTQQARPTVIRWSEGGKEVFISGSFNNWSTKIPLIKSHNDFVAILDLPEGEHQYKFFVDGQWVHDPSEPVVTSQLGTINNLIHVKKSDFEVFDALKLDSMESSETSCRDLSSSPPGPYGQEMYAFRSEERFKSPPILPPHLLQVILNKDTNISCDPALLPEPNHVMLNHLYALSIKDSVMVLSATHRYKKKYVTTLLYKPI
AMPK α1β2γ1, sequence (P54619 whole entry partner): as the sequence (P54619 whole entry partner) above

Papp [1]: 26 ×10⁻⁶ cm/s
EC50 [2]: 0.0631 ± 0.0147 µM
fraction unbound [3]: 0.037
EC50 [4]: 0.0832 µM
hepatocyte CLint [5]: < 1 µL/min/1e6 cells
solubility at 27 h [6]: 8 µM (≈ 4.33 µg/mL)
EC50 [7]: 0.02 ± 0.0095 µM
logD [8]: 2.8
microsomal CLint [9]: < 3 µL/min/mg
hepatocyte CLint [10]: 8.6 µL/min/1e6 cells
hepatocyte CLint [11]: < 1.4 µL/min/1e6 cells
SMILES: CS(C)(=O)=Nc1ccc(-c2ccc(-c3nc4[nH]c(O[C@@H]5CO[C@H]6[C@@H]5OC[C@H]6O)nc4cc3Cl)cc2)cc1 [BI9774]
